According to ChEMBL document CHEMBL4616599, “Molecular mechanism of C-phycocyanin induced apoptosis in LNCaP cells” (Bioorg Med Chem, 2020):
The source made the active and inactive calls.

Tests used:
Assay type in all cases: functional, cell-based
[1] = tested on: LNCaP; assay: Induction of apoptosis in human LNCAP cells assessed as up regulation of p21 expression at 10 uM measured after 24 hrs by immunoblot analysis
[2] = tested on: LNCaP; assay: Cytotoxicity against human LNCAP cells assessed as reduction in cell viability at 10 uM after 24 hrs by trypan blue dye exclusion assay
[3] = tested on: LNCaP; assay: Induction of apoptosis in human LNCAP cells assessed as up regulation of p53 expression at 10 uM measured after 24 hrs by immunoblot analysis
[4] = tested on: LNCaP; assay: Induction of apoptosis in human LNCAP cells assessed as increase in cleaved PARP expression at 10 uM measured after 24 hrs by Western blot analysis
[5] = tested on: LNCaP; assay: Induction of apoptosis in human LNCAP cells assessed as increase in cleaved PARP expression at 500 ug/ml measured after 24 hrs by western blot analysis
[6] = tested on: LNCaP; assay: Induction of apoptosis in human LNCAP cells assessed as decrease in uncleaved PARP expression at 10 uM measured after 24 hrs by Western blot analysis

Measured: Activity

CC[C@@]1(O)C(=O)OCc2c1cc1n(c2=O)Cc2cc3c(CN(C)C)c(O)ccc3nc2-1
active: all assays above
